Test results published in patent publication US7232839B2, “Benzoisothiazolone compositions” (L'Oreal, priority 2004, dated 2007).

What was measured:
[1] = tested on: immortalized human sebocytes in culture, derived from the SZ95 line; experiment: Lipogenesis test: lipid content of sebocytes in culture by Nile red fluorescence; type: cell-based; conditions: for LIPID VARIATION (relative to the control): treatment for 2 days, neutral lipids, Nile red
Procedure: The activity of the compounds (2c) and (1e) described above was tested on a model of immortalized human sebocytes in culture, derived from the SZ95 line described in Zouboulis, C. C., Seltmann, H., Neitzel, H. & Orfanos, C. E., Establishment and Characterization of an Immortalized Human Sebaceous Gland Cell Line, J. Invest. Dermatol., 113, 1011–1020 (1999).
The test consisted in measuring the amount of lipids produced by the sebocytes of the line (at confluence), in the presence or absence of an active agent, diluted in DMSO, such that the final amount of DMSO in the culture medium is 0.1%. After treatment for 2 days, the adherent cells are treated with Nile red (1 μg/ml). The lipid content is then quantified by measuring the fluorescence of the dye (excitation/emission couple: 485–540 nm for the neutral lipids).
The tests are performed in sextuplicate and the experiment is repeated four times.

[2] = tested on: immortalized human sebocytes in culture, derived from the SZ95 line; experiment: Proliferation tests (MUH) and cell viability tests (LDH) run in parallel; type: cell-based
Source text: In parallel, proliferation tests (MUH) and cell viability tests (LDH) make it possible to check that the, effects obtained are not associated with an appreciable change in these biological parameters.

`COc1ccc(N2C(=O)c3c(OC)cccc3S2(=O)=O)cc1` [(2c), 4-methoxy-2-(4-methoxyphenyl)-1,2-benzisothiazol-3(2H)-one 1,1-dioxide] was tested, and the “LIPID VARIATION (relative to the control)” value ([1]; concentration 10^−6 M) was “+43%” and the Proliferation/cytotoxicity ([2]; concentration 10^−6 M) was “no”.

With `O=C1c2c(O)cccc2S(=O)(=O)N1c1ccccc1` [(1e), 4-hydroxy-2-phenyl-1,2-benzisothiazol-3(2H)-one 1,1-dioxide] the “LIPID VARIATION (relative to the control)” value ([1]; concentration 10^−4 M) was “+39%”, the “LIPID VARIATION (relative to the control)” value ([1]; concentration 10^−6 M) was “+16%” and the Proliferation/cytotoxicity ([2]; concentration 10^−4 M) was “no”. For the same compound, the Proliferation/cytotoxicity ([2]; concentration 10^−6 M) was “no”.

`C[C@]12CC[C@H](O)CC1=CC[C@@H]1[C@@H]2CC[C@]2(C)C(=O)CC[C@@H]12` [DHEA, reference compound] was tested, and the “increase in the lipid content of the sebum” value ([1]; concentration 10^−5 M, same test) was 13%.
